Reference: patent US10435400B2, “2,4-disubstituted phenylene-1,5-diamine derivatives and applications thereof, and pharmaceutical compositions and pharmaceutically acceptable compositions prepared therefrom” (SHANGHAI HAIYAN PHARMACEUTICAL TECHNOLOGY CO., LTD., priority 2014, dated 2019)
Read-outs that look alike come from different tables or passages of the source.

Assays:
[1] = tested on: T790M mutant cell line H1975; settings: background statement; almost no activity; cited from earlier work
H1975 cells [2] = experiment: Cytostatic activity by MTT method, H1975 cells; assay type: cell-based; settings: for IC50: read-out: H1975 cells (IC50/nM); for selective inhibitory activity against the cell growth [IC50 (A431 cells)/IC50 (H1975 cells)]: ratio of IC50 values
NIH3T3 cells = experiment: Cytotoxicity by MTT method, NIH3T3 cells; assay type: cell-based; settings: read-out: NIH3T3 cells MTT assay (IC50/nM);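 also: cells grown in 96-well plates with compound for 72 h, then given MTT for a further 4 h at 37 °C under 5% CO2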
H1975 cells [3] = experiment: ELISA screening EGFR T790M inhibitor for cell activity, H1975 cells; assay type: cell-based; settings: for IC50: read-out: H1975 cells (IC50/nM); for Selective inhibitory activities of target on cellular level [IC50 (A431 cells)/IC50 (H1975 cells)]: ratio of IC50 values
A431 cells [4] = experiment: ELISA cell activity, EGF-stimulated A431 cells; assay type: cell-based;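 also: Serum-starved A431 cells pretreated with compound for 1 h, then stimulated with EGF for 45 min, lysates read by ELISA (OD450 minus OD570), EGF-only wells as control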
[5] = In vivo pharmacokinetic test in rats; settings: male, SD, rat, plasma; for clearance / half-life: IV 1 mg/kg; for clearance: read-out: Clearance CL; for half-life: read-out: Half-life T½ (converted); for bioavailability: oral gavage 20 mg/kg vs IV 1 mg/kg, read-out: Oral relative bioavailability F; for AUC / Cmax: route not given (IV 1 mg/kg, oral gavage 20 mg/kg); for AUC: read-out: Area under the curve AUC; for Cmax: read-out: Maximum plasma concentration Cmax
Description: (§1) LC/MS/MS method was applied for the determination of the drug concentration in plasma at different times after the example compounds were orally and intravenously administered to rats or mice in order to study the pharmacokinetic behavior of the compounds of the invention in vivo in rats or mice and evaluate their pharmacokinetic characteristics.
(§2) Test Animals: healthy Adult male SD rats (weight 200-300 g, 6, fasted) or male CD1 mice (weight 20-30 g, 18, free access to water and food), provided by SLAC company;
(§3) Administration and Dosage: (1 mg/kg, 5 ml/kg, 5% DMAC (dimethylacetamide), 5% Solutol HS 15 (polyethylene glycol-15 hydroxystearate) and 90% saline was intravenously administered via foot dorsal vein and (20 mg/kg, 10 ml/kg, 0.5% CMC-Na solution) was administered via oral gavage to SD rats; (1 mg/kg, 5 ml/kg, 5% DMAC, 5% Solutol HS 15 and 90% Saline) was administered intravenously via tail vein and (5 mg/kg, 10 mL/kg, 0.5% CMC-Na aqueous solution) was administered via oral gavage to CD1 mice.
(§4) Blood collection: firstly, the animals which were selected to meet the test requirements prior to administration were weighed. The rats or mice were bound before the blood collection, blood from each administered rat was taken at predetermined time points (intravenous administration: blood was collected at 0.083, 0.25, 0.5, 1, 2, 4, 8, 24 h before and after administration respectively, 9 time points in total; gavage: blood was collected at 0.083, 0.25, 0.5, 1, 2, 4, 8, 24 h before and after administration respectively, 9 time points in total), about 150 μl of blood was collected via tail vein or heart (blood terminal). Blood from each administered mouse was taken blood at predetermined time points (tail vein: blood was collected at 0.083, 0.25, 0.5, 1, 2, 4, 8, 24 h, 8 time points in total; gavage: blood was collected at 0.25, 0.5, 1, 2, 4, 8, 24 h, 7 time points in total), about 150 μl of blood was collected via orbital or heart (blood terminal). Blood was transferred to a 1.5 ml tube to which K2EDTA was added previously. The collected blood sample was put on ice, and centrifuged to obtain plasma sample (2000 g, 5 min under 4° C.) within 15 minutes. All the plasma samples were stored at approximately −70° C. until analysis.
(§5) LC/MS/MS method was applied to determine the concentrations of the drug. At the same dose and administration, pharmacokinetic parameters of some example compounds of the invention in rats and mice were shown in Table 9: […]

[6] = In vivo pharmacokinetic test in mice; settings: male, CD1, mouse, plasma; for clearance / half-life: IV 1 mg/kg; for clearance: read-out: Clearance CL; for half-life: read-out: Half-life T½ (converted); for bioavailability: oral gavage 5 mg/kg vs IV 1 mg/kg, read-out: Oral relative bioavailability F; for AUC / Cmax: route not given (IV 1 mg/kg, oral gavage 5 mg/kg); for AUC: read-out: Area under the curve AUC; for Cmax: read-out: Maximum plasma concentration Cmax
Description: as §1, §2, §3, §4, §5

A431 cells [7] = experiment: Cytostatic activity by MTT method, A431 cells; settings: read-out: A431 cells (IC50/nM);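 also: viability read by MTT reduction after compound exposure, with MTT incubated for a further 4 h at 37 °C under 5% CO2 in 96-well plates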
EGFR WT kinase = EGFR WT kinase (Homo sapiens (Human), UniProt P00533); experiment: Wild type EGFR kinase inhibition test (z-lyte); assay type: biochemical; settings: 10 μM ATP
Chain of EGFR WT kinase (P00533 25-1210): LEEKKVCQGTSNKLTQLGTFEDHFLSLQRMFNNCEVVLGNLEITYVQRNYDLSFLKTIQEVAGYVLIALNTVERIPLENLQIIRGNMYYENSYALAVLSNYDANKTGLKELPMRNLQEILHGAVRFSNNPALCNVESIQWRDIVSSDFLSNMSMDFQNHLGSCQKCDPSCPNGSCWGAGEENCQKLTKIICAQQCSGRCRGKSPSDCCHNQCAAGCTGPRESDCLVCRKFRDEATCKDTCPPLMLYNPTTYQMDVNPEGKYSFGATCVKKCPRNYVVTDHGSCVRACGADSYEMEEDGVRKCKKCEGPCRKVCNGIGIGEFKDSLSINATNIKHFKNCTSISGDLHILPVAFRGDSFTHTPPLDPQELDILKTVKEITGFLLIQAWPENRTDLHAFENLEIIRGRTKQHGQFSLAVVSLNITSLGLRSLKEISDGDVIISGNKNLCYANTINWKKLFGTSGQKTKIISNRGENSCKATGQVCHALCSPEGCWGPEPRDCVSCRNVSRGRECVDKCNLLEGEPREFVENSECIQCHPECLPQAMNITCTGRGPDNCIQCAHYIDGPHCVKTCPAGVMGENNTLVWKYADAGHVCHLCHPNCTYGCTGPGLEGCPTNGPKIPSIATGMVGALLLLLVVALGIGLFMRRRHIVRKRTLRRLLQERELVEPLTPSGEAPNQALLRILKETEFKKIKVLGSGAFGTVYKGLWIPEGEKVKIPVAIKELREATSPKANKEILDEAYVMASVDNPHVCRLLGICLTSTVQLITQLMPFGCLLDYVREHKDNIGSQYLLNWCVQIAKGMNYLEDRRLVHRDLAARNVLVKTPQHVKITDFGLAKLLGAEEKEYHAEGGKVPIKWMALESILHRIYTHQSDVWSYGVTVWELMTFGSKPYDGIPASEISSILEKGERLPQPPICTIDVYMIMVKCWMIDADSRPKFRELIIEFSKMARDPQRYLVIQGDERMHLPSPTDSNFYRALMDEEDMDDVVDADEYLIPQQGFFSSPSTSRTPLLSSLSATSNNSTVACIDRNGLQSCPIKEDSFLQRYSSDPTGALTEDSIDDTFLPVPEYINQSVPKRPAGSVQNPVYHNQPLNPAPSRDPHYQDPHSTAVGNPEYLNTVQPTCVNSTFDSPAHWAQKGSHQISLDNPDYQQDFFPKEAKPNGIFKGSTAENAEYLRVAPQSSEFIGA

[8] = Homo sapiens, NCI-H1975, MTT, 72 h
[9] = Mus musculus, NIH3T3, cytotoxicity, MTT, 72 h
[10] = Homo sapiens, NCI-H1975, ELISA, compound 1 h
[11] = Homo sapiens, A-431, ELISA, compound 1 h then EGF 45 minutes, read-out: A431 cells (IC50/nM)
[12] = ELISA, compound 1 h then EGF 45 minutes, read-out: A431 cells (IC50/nM)

IC50 (H1975 cells [2]; [8]) [nM] | IC50 (H1975 cells [3]; [10]) [nM] | IC50 (A431 cells [4]; [11]) [nM] | IC50 (A431 cells [7]; Homo sapiens, A-431, 72 h) [nM] | IC50 (EGFR WT kinase) [nM] | selective inhibitory activity against the cell growth [IC50 (A431 cells)/IC50 (H1975 cells)] (H1975 cells [2]; MTT) | Selective inhibitory activities of target on cellular level [IC50 (A431 cells)/IC50 (H1975 cells)] (H1975 cells [3]; ELISA) | SMILES | IC50 (NIH3T3 cells; [9]) [nM] | other results
 |  |  |  |  |  |  | C#Cc1cccc(Nc2ncnc3cc(OCCOC)c(OCCOC)cc23)c1 [erlotinib] |  | activity in T790M mutant cell line H1975 [1]: greater than 3 uM
19 | 15 | 4790 | 1730 |  |  |  | C=CC(=O)Nc1cc(Nc2ncc(Cl)c(-c3cnn(C)c3)n2)c(OC)cc1N1CCC(N(C)C)CC1 [Compound Z-89, N-(5-(5-chloro-4-(1-methyl-1H-pyrazol-4-yl)pyrimidin-2-ylamino)-2-(4-(dimethylamino)piperidin-1-yl)-4-methoxyphenyl)acrylamide] | 4040 | clearance [5]: 43.5 mL/min/kg; half-life [5]: 7.05 h; bioavailability [5]: 102%; AUC [5]: 7190 ng·h/mL; Cmax [5]: 437 ng/mL; clearance [6]: 47.7 mL/min/kg; half-life [6]: 4.43 h; bioavailability [6]: 59.7%; AUC [6]: 1040 ng·h/mL; Cmax [6]: 85.3 ng/mL
17 | 34 | 1690 | 2390 | 102 | 140.6 | 50 | C=CC(=O)Nc1cc(Nc2ncc(F)c(-c3cnn(C)c3)n2)c(OC)cc1N1CCC(N(C)C)CC1 [Compound Z-90, N-(2-(4-(dimethylamino)piperidin-1-yl)-5-(5-fluoro-4-(1-methyl-1H-pyrazol-4-yl)pyrimidin-2-ylamino)-4-methoxyphenyl)acrylamide] | > 10000 | clearance [5]: 43.9 mL/min/kg; half-life [5]: 7.02 h; bioavailability [5]: 92.6%; AUC [5]: 6480 ng·h/mL; Cmax [5]: 408 ng/mL; clearance [6]: 65.5 mL/min/kg; half-life [6]: 4.65 h; bioavailability [6]: 66.4%; AUC [6]: 657 ng·h/mL; Cmax [6]: 90.6 ng/mL
 |  |  |  | 14 | 101.2 | 6.2 | C=CC(=O)Nc1cc(Nc2ncc(Cl)c(-c3cnc4c(ccn4C(C)C)c3)n2)c(OC)cc1N(C)CCN(C)C [Compound Z-125] |  | IC50 (H1975 cells [2]; MTT, 72 h): 13 nM; IC50 (NIH3T3 cells; cytotoxicity, MTT, 72 h): 4660 nM; IC50 (H1975 cells [3]; ELISA, compound 1 h): 47 nM; IC50 (A431 cells [4]; [12]): 291 nM; IC50 (A431 cells [7]; MTT, 72 h): 1320 nM
45 | 41 | 4960 | 5450 | 328 | 121.1 | 121 | C=CC(=O)Nc1cc(Nc2ncc(Cl)c(-c3cn(C)nc3C)n2)c(OC)cc1N1CCC(N(C)C)CC1 [Compound Z-95, N-(5-(5-chloro-4-(1,3-dimethyl-1H-pyrazol-4-yl)pyrimidin-2-ylamino)-2-(4-(dimethylamino)piperidin-1-yl)-4-methoxyphenyl)acrylamide] | > 10000 | 
8 | 16 | 372 | 645 | 20 | 80.6 | 23.3 | C=CC(=O)Nc1cc(Nc2ncc(Cl)c(-c3cn(C)nc3C)n2)c(OC)cc1N(C)CCN(C)C [Compound Z-94, N-(5-(5-chloro-4-(1,3-dimethyl-1H-pyrazol-4-yl)pyrimidin-2-ylamino)-2-((2-(dimethylamino)ethyl)(methyl)amino)-4-methoxyphenyl)acrylamide] | > 10000 | 
 |  |  |  | 19 | 50.1 | 21.7 | C=CC(=O)Nc1cc(Nc2nccc(-c3cnc4c(ccn4C)c3)n2)c(OC)cc1N1CC(N(C)C)C1 [Compound Z-27] |  | IC50 (H1975 cells [2]; MTT, 72 h): 49 nM; IC50 (NIH3T3 cells; cytotoxicity, MTT, 72 h): 7960 nM; IC50 (H1975 cells [3]; ELISA, compound 1 h): 44 nM; IC50 (A431 cells [4]; [12]): 955 nM; IC50 (A431 cells [7]; MTT, 72 h): 2480 nM
24 | 24 | 8430 | 1230 | 297 | 51.1 | 351.2 | C=CC(=O)Nc1cc(Nc2ncc(Cl)c(-c3cnn(C)c3)n2)c(OC)cc1N1CCN(C)CC1 [Compound Z-100, N-(5-(5-chloro-4-(1-methyl-1H-pyrazol-4-yl)pyrimidin-2-ylamino)-4-methoxy-2-(4-methylpiperazin-1-yl)phenyl)acrylamide] | 3880 | 
 |  |  |  |  |  |  | COc1cc2ncnc(Nc3ccc(F)c(Cl)c3)c2cc1OCCCN1CCOCC1 [gefitinib] |  | activity in T790M mutant cell line H1975 [1]: greater than 3 uM
 |  |  |  | 22 | 66 | 5.2 | C=CC(=O)Nc1cc(Nc2nccc(-c3cnc4c(ccn4C)c3)n2)c(OC)cc1N(C)CCN(C)C(C)C [Compound Z-115] |  | IC50 (H1975 cells [2]; MTT, 72 h): 38 nM; IC50 (NIH3T3 cells; cytotoxicity, MTT, 72 h): > 10000 nM; IC50 (H1975 cells [3]; ELISA, compound 1 h): 90 nM; IC50 (A431 cells [4]; [12]): 469 nM; IC50 (A431 cells [7]; MTT, 72 h): 2500 nM

SMILES | IC50 (H1975 cells [2]; [8]) [nM] | IC50 (H1975 cells [3]; [10]) [nM] | IC50 (A431 cells [4]; [11]) [nM] | IC50 (A431 cells [7]; Homo sapiens, A-431, 72 h) [nM] | IC50 (EGFR WT kinase) [nM] | selective inhibitory activity against the cell growth [IC50 (A431 cells)/IC50 (H1975 cells)] (H1975 cells [2]; MTT) | Selective inhibitory activities of target on cellular level [IC50 (A431 cells)/IC50 (H1975 cells)] (H1975 cells [3]; ELISA) | IC50 (NIH3T3 cells; [9]) [nM] | other results
C=CC(=O)Nc1cc(Nc2nccc(-c3cn(C)c4ccccc34)n2)c(OC)cc1N(C)CCN(C)C [comparative compound 1, reference compound] |  |  |  | […] |  |  |  |  | IC50 (H1975 cells [2]; Homo sapiens, NCI-H1975, 72 h): 13 nM; IC50 (NIH3T3 cells; Mus musculus, NIH3T3, 72 h): 3550 nM; IC50 (H1975 cells [3]; Homo sapiens, NCI-H1975, 1 h): 29 nM; IC50 (A431 cells [4]; Homo sapiens, A-431, read-out: A431 cells (IC50/nM)): […]; half-life [5]: 8.28 h; bioavailability [5]: 18.5%; half-life [6]: 1.99 h; bioavailability [6]: 30.2%
